Measurements published in PubChem BioAssay (NCI).
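96-well plates; 48 h exposure; 5 concentrations. Endpoints by linear interpolation between flanking doses. Not reached: highest tested concentration assigned. GI50 = concentration required for 50% inhibition of growth. The concentration for full growth arrest is given as TGI.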

Key:
Assay in all cases: inhibition of tumour cell growth, NCI panel, 48 h
CAKI-1 renal = tested on: CAKI-1 renal
SF-539 CNS = tested on: SF-539 CNS
RPMI-8226 leukemia = tested on: RPMI-8226 leukemia
HOP-62 NSCLC = tested on: HOP-62 NSCLC
OVCAR-3 ovarian = tested on: OVCAR-3 ovarian
HCT-15 colon = tested on: HCT-15 colon
PC-3 prostate = tested on: PC-3 prostate
TK-10 renal = tested on: TK-10 renal
BT-549 breast = tested on: BT-549 breast
OVCAR-5 ovarian = tested on: OVCAR-5 ovarian
UACC-257 melanoma = tested on: UACC-257 melanoma
HCC-2998 colon = tested on: HCC-2998 colon
SK-OV-3 ovarian = tested on: SK-OV-3 ovarian
SW-620 colon = tested on: SW-620 colon
SK-MEL-28 melanoma = tested on: SK-MEL-28 melanoma
NCI-H23 lung = tested on: NCI-H23 lung
MOLT-4 leukemia = tested on: MOLT-4 leukemia
RXF 393 renal = tested on: RXF 393 renal
SNB-75 CNS = tested on: SNB-75 CNS
COLO 205 colon = tested on: COLO 205 colon
DU-145 prostate = tested on: DU-145 prostate
SN12C renal = tested on: SN12C renal
SF-295 CNS = tested on: SF-295 CNS
KM12 colon = tested on: KM12 colon
U251 CNS = tested on: U251 CNS
UO-31 renal = tested on: UO-31 renal
MALME-3M melanoma = tested on: MALME-3M melanoma
HS 578T breast = tested on: HS 578T breast
NCI-H460 lung = tested on: NCI-H460 lung
OVCAR-4 ovarian = tested on: OVCAR-4 ovarian
M14 melanoma = tested on: M14 melanoma
SK-MEL-5 melanoma = tested on: SK-MEL-5 melanoma
UACC-62 melanoma = tested on: UACC-62 melanoma
MDA-MB-231 breast = tested on: MDA-MB-231 breast
T-47D breast = tested on: T-47D breast
HL-60(TB) leukemia = tested on: HL-60(TB) leukemia
SNB-19 CNS = tested on: SNB-19 CNS
A498 renal = tested on: A498 renal
ACHN renal = tested on: ACHN renal
MCF7 breast = tested on: MCF7 breast
SK-MEL-2 melanoma = tested on: SK-MEL-2 melanoma
EKVX NSCLC = tested on: EKVX NSCLC
NCI-H522 lung = tested on: NCI-H522 lung
NCI/ADR-RES ovarian = tested on: NCI/ADR-RES ovarian
IGROV1 ovarian = tested on: IGROV1 ovarian
OVCAR-8 ovarian = tested on: OVCAR-8 ovarian
HOP-92 NSCLC = tested on: HOP-92 NSCLC
HCT-116 colon = tested on: HCT-116 colon
786-0 renal = tested on: 786-0 renal
SF-268 CNS = tested on: SF-268 CNS
CCRF-CEM leukemia = tested on: CCRF-CEM leukemia
A549 NSCLC = tested on: A549 NSCLC
NCI-H226 lung = tested on: NCI-H226 lung
HT29 colon = tested on: HT29 colon
MDA-MB-435 = tested on: MDA-MB-435

SMILES: CCCCCCCCCCCCCC1=NC(C)(C)CN1C(C)C
- GI50 (CAKI-1 renal): 1360 nM
- TGI (CAKI-1 renal): 2840 nM
- GI50 (SF-539 CNS): 1650 nM
- TGI (SF-539 CNS): 3010 nM
- GI50 (RPMI-8226 leukemia): 1200 nM
- TGI (RPMI-8226 leukemia): 3030 nM
- GI50 (HOP-62 NSCLC): 1730 nM
- TGI (HOP-62 NSCLC): 3170 nM
- GI50 (OVCAR-3 ovarian): 1480 nM
- TGI (OVCAR-3 ovarian): 2800 nM
- GI50 (HCT-15 colon): 1320 nM
- TGI (HCT-15 colon): 2590 nM
- GI50 (PC-3 prostate): 1340 nM
- TGI (PC-3 prostate): 3030 nM
- GI50 (TK-10 renal): 1580 nM
- TGI (TK-10 renal): 3000 nM
- GI50 (BT-549 breast): 2330 nM
- TGI (BT-549 breast): 6000 nM
- GI50 (OVCAR-5 ovarian): 1680 nM
- TGI (OVCAR-5 ovarian): 3050 nM
- GI50 (UACC-257 melanoma): 1920 nM
- TGI (UACC-257 melanoma): 3390 nM
- GI50 (HCC-2998 colon): 1410 nM
- TGI (HCC-2998 colon): 2740 nM
- GI50 (SK-OV-3 ovarian): 1790 nM
- TGI (SK-OV-3 ovarian): 3170 nM
- GI50 (SW-620 colon): 1580 nM
- TGI (SW-620 colon): 2920 nM
- GI50 (SK-MEL-28 melanoma): 1740 nM
- TGI (SK-MEL-28 melanoma): 3110 nM
- GI50 (NCI-H23 lung): 1670 nM
- TGI (NCI-H23 lung): 3110 nM
- GI50 (MOLT-4 leukemia): 1560 nM
- TGI (MOLT-4 leukemia): 3260 nM
- GI50 (RXF 393 renal): 1620 nM
- TGI (RXF 393 renal): 3110 nM
- GI50 (SNB-75 CNS): 1640 nM
- TGI (SNB-75 CNS): 3000 nM
- GI50 (COLO 205 colon): 1410 nM
- TGI (COLO 205 colon): 2710 nM
- GI50 (DU-145 prostate): 1700 nM
- TGI (DU-145 prostate): 3060 nM
- GI50 (SN12C renal): 1590 nM
- TGI (SN12C renal): 2980 nM
- GI50 (SF-295 CNS): 1620 nM
- TGI (SF-295 CNS): 3150 nM
- GI50 (KM12 colon): 1650 nM
- TGI (KM12 colon): 3010 nM
- GI50 (U251 CNS): 1640 nM
- TGI (U251 CNS): 3000 nM
- GI50 (UO-31 renal): 1390 nM
- TGI (UO-31 renal): 2690 nM
- GI50 (MALME-3M melanoma): 1700 nM
- TGI (MALME-3M melanoma): 3410 nM
- GI50 (HS 578T breast): 1790 nM
- TGI (HS 578T breast): 3860 nM
- GI50 (NCI-H460 lung): 1890 nM
- TGI (NCI-H460 lung): 3300 nM
- GI50 (OVCAR-4 ovarian): 1760 nM
- TGI (OVCAR-4 ovarian): 3480 nM
- GI50 (M14 melanoma): 1720 nM
- TGI (M14 melanoma): 3090 nM
- GI50 (SK-MEL-5 melanoma): 1670 nM
- TGI (SK-MEL-5 melanoma): 3030 nM
- GI50 (UACC-62 melanoma): 1740 nM
- TGI (UACC-62 melanoma): 3200 nM
- GI50 (MDA-MB-231 breast): 1520 nM
- TGI (MDA-MB-231 breast): 2890 nM
- GI50 (T-47D breast): 1840 nM
- TGI (T-47D breast): 3800 nM
- GI50 (HL-60(TB) leukemia): 1090 nM
- TGI (HL-60(TB) leukemia): 2720 nM
- GI50 (SNB-19 CNS): 1790 nM
- TGI (SNB-19 CNS): 3180 nM
- GI50 (A498 renal): 2160 nM
- TGI (A498 renal): 4580 nM
- GI50 (ACHN renal): 1640 nM
- TGI (ACHN renal): 2990 nM
- GI50 (MCF7 breast): 1670 nM
- TGI (MCF7 breast): 3130 nM
- GI50 (SK-MEL-2 melanoma): 1880 nM
- TGI (SK-MEL-2 melanoma): 3390 nM
- GI50 (EKVX NSCLC): 1490 nM
- TGI (EKVX NSCLC): 3170 nM
- GI50 (NCI-H522 lung): 1580 nM
- TGI (NCI-H522 lung): 2970 nM
- GI50 (NCI/ADR-RES ovarian): 1670 nM
- TGI (NCI/ADR-RES ovarian): 3510 nM
- GI50 (IGROV1 ovarian): 1080 nM
- TGI (IGROV1 ovarian): 2260 nM
- GI50 (OVCAR-8 ovarian): 1780 nM
- TGI (OVCAR-8 ovarian): 3420 nM
- GI50 (HOP-92 NSCLC): 655 nM
- TGI (HOP-92 NSCLC): 2190 nM
- GI50 (HCT-116 colon): 1380 nM
- TGI (HCT-116 colon): 2680 nM
- GI50 (786-0 renal): 1720 nM
- TGI (786-0 renal): 3130 nM
- GI50 (SF-268 CNS): 1760 nM
- TGI (SF-268 CNS): 3140 nM
- GI50 (CCRF-CEM leukemia): 1540 nM
- TGI (CCRF-CEM leukemia): 3430 nM
- GI50 (A549 NSCLC): 1760 nM
- TGI (A549 NSCLC): 3250 nM
- GI50 (NCI-H226 lung): 1720 nM
- TGI (NCI-H226 lung): 3510 nM
- GI50 (HT29 colon): 422 nM
- TGI (HT29 colon): 1470 nM
- GI50 (MDA-MB-435): 1510 nM
- TGI (MDA-MB-435): 3080 nM
